Experimental data as given in patent publication US20260327211A1, “MODULATORS OF A POTASSIUM CHANNEL AND OF TRPV1 CHANNEL AND USES THEREOF” (Bsense Bio Therapeutics Ltd., priority 2023, published 2026).
pIC50: −log10 of the molar value.

How the values were obtained:
hKv7.2/3 = biological target: T1, hKv7.2/3 (Homo sapiens, UniProt O43525+O43526); assay: Kv7.2/7.3 HCS, FLIPR potassium (thallium) assay, CHO/hKv7.2/3; assay type: cell-based; conditions: read-out: Kv7.2/3 maximal opening vs. control
T1 construct: host or cells: CHO
T1 sequence (O43525 whole entry): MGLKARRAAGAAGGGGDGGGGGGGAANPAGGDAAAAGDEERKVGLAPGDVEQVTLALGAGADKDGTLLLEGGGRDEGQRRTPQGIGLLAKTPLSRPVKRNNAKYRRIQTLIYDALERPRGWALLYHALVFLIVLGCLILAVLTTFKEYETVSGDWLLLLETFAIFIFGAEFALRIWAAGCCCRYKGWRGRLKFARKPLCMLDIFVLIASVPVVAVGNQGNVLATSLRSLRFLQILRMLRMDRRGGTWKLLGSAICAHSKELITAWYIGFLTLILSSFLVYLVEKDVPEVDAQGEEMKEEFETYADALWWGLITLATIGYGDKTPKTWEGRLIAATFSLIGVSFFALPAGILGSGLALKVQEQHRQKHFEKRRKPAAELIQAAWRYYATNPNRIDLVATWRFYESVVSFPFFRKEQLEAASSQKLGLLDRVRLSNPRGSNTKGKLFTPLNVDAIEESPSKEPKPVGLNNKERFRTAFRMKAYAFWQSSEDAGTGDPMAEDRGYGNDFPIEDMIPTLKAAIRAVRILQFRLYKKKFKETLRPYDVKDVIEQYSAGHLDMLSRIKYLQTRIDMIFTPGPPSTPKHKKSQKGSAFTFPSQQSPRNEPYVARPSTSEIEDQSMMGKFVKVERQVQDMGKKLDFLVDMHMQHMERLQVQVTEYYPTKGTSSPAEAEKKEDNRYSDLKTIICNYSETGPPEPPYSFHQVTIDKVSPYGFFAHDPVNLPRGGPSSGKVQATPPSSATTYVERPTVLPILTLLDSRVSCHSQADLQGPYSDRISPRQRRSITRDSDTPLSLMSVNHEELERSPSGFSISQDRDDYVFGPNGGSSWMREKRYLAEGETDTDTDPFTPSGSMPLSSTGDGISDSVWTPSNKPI
T1 sequence (O43526 whole entry): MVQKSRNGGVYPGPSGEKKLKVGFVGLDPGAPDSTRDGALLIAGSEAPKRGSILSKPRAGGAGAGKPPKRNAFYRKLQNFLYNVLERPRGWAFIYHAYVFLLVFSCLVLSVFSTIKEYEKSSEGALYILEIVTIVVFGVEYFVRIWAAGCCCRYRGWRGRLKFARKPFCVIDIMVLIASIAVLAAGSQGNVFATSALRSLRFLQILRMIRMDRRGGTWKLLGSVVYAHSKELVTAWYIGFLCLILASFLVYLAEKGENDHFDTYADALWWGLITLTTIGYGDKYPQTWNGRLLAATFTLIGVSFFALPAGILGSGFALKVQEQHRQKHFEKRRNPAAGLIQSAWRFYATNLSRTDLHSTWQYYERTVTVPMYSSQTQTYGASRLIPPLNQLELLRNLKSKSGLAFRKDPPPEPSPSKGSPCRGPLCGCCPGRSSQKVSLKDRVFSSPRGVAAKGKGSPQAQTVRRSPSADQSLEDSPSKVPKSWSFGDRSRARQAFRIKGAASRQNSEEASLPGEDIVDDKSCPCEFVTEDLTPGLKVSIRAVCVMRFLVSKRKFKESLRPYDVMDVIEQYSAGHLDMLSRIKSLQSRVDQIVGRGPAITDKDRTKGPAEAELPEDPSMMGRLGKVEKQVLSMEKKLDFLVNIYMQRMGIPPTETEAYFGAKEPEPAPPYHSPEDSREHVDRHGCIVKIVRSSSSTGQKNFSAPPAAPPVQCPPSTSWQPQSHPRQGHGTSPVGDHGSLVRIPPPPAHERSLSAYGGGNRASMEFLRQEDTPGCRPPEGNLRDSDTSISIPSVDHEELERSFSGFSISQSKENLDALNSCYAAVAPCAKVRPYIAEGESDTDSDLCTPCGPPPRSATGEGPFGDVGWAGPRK
Experimental: Cell culture: Chinese hamster ovary (CHO) cell-line cells with a constitutive expression of human Kv7.2/3 channels (B'SYS GmbH, Switzerland) were cultured in F-12 nutrient mixture (Biological Industries) supplemented with 10% fetal bovine serum (Biological Industries) and 1% penicillin-streptomycin (Biological Industries) in a humidified 5% CO2 incubator at 37° C. To maintain the stability of human Kv7.2/7.3 expression antibiotic selection was added (Puromycin 5 μg/ml).
High content screen (HCS) using FLIPR Potassium Assay Kit: A FLIPR Potassium Assay Kit (R8222 FLIPR Potassium Assay Explorer Kits, Molecular Devices) was used with the CHO/hKv7.2/3 cell line to screen molecules against the hKv7.2/7.3 ion channel target. The assay exploits the permeability of thallium ions (Tl+) through potassium (K+) channels. In this assay, Tl+ indicator dye is used to produce a bright fluorescent signal upon the binding to Tl+ conducted through the potassium channels. The intensity of the Tl+ signal is proportional to the number of potassium channels in the open state. Therefore, it provides a functional indication of the potassium channel activity. To activate the voltage-gate potassium channels, the cells were stimulated with a mixture of K+ and Tl+ to depolarize the cell membrane. The fluorescence increase in the assay represents the influx of Tl+ into the cell specifically through the potassium channel, providing a functional read-out of hKv7.2/3 activity using a fluorescent plate reader coupled with injectors used to activate the channels.
According to optimization process to achieve uniform and consistent screening conditions the following protocol was established: Cells were seeded in 384-well, black-walled, clear-bottomed Greiner #781091, at a density of 5000 cells per well 24 hours before the assay conductance and incubated overnight in their normal growth medium. On the experiment day the medium was replaced with HBSS, HEPES, and the test compound/vehicle (0.2% DMSO). Dye solution (prepared according to the manufacturer) was added to the plates, which were incubated for 1.5 h light-protected in room temperature. Tecan Spark reader plate injectors were primed with Tl+(1 mM Tl2SO4) or Tl++K+(1 mM Tl2SO4; 5 mM K2SO4) for channel activation and data correction. […] To calculate EC50 values, the data was fitted to sigmoidal regression using Prism GraphPad. The fitting was constrained to a minimum of 1 and a maximal response of about 3.6 unless a different maximal response could be clearly identified.

hKv7.3/5 = biological target: T2, hKv7.3/5 (Homo sapiens, UniProt O43525+Q9NR82); conditions: positive control; read-out: Known IC50, Kv7.3/5; cited from earlier work
T2 construct: expressed in transfected cells; host or cells: CHO
T2 sequence (O43525 whole entry): as the sequence (O43525 whole entry) above
T2 sequence (Q9NR82 whole entry): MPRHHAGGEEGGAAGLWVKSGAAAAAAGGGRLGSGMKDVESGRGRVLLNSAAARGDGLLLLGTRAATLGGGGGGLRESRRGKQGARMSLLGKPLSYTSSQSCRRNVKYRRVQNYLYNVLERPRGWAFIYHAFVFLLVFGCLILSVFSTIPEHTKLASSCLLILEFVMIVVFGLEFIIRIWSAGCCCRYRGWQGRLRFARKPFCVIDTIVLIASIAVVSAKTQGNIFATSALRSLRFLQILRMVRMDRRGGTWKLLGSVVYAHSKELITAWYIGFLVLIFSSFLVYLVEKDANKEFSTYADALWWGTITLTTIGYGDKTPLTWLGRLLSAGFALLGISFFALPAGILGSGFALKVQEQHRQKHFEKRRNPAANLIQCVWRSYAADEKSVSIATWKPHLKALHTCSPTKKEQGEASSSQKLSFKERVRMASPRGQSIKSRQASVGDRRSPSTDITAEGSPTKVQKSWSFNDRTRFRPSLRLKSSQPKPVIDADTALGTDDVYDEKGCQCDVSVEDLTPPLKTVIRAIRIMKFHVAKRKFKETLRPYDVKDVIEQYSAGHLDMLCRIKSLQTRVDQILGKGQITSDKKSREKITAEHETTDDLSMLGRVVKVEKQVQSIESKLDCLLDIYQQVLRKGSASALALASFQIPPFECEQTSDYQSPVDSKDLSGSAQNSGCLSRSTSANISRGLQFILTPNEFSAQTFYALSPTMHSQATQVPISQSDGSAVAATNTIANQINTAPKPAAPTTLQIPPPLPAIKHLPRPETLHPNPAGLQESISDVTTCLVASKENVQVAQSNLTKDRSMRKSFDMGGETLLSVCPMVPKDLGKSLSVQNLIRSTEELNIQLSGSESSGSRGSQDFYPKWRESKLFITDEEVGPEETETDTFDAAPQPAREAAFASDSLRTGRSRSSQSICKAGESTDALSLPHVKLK

hKv7.4 = biological target: T3, hKv7.4 (Homo sapiens, UniProt P56696); conditions: positive control; read-out: Known IC50, Kv7.4; cited from earlier work
T3 construct: expressed in transfected cells; host or cells: CHO
T3 sequence (P56696 whole entry): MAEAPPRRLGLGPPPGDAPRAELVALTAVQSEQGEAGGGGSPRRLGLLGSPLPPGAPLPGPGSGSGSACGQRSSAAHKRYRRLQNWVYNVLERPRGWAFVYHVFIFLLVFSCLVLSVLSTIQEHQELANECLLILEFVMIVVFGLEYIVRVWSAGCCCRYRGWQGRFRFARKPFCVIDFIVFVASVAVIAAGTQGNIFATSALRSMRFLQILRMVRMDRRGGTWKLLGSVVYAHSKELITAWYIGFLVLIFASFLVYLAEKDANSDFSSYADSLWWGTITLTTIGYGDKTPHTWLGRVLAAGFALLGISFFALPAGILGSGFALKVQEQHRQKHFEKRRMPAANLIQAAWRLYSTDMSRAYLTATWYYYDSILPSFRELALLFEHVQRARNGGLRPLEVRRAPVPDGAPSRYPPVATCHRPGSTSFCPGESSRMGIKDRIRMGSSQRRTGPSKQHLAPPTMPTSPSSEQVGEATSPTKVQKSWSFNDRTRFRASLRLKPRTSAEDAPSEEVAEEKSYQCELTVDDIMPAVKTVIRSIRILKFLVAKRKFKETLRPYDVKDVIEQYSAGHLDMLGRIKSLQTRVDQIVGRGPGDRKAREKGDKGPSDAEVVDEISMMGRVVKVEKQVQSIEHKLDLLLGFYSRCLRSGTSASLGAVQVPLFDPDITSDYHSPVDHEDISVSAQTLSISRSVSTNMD

[1] = system: KCNQ2-5-type potassium channels; conditions: cited from earlier work
[2] = system: sodium and calcium channel; conditions: cited from earlier work
HepG2 cells = conditions: positive control; read-out: Toxicity IC50; cited from earlier work
MIA-OA rats = assay: Dynamic weight bearing in MIA-OA rats; assay type: in vivo, rat; conditions: 100 mg/kg (naproxen 30 mg/kg), 6 hours post-dose
Experimental: Monosodium iodoacetate-induced osteoarthritis (MIA-OA): The animals were anaesthetized using an Isoflurane+O2 mixture. Then 50 μl of MIA at a concentration of 60 mg/mL was injected into the right knee joint using a 30 G needle. On study days 13 and 14 following MIA injection, the animals' dynamic weight bearing and response to von Frey filaments were measured.
Dynamic Weight Bearing (DWB): DWB study was performed using the DWB2 apparatus (Bioseb, Paris, France). The rats were placed in a transparent cage containing a matrix comprising around 2000 high-precision force sensors embedded in its floor where they were allowed to move freely. The force sensors measured the weight distribution on each of the four paws of the animal in grams. The animal was filmed from above using a high-definition camera, and the video feed was analyzed in real-time during the test using tracking software, allowing a precise analysis of the animal's posture and hind paws identification. Out of 5 minutes of animal behavior recording, a segment of 2 minutes was analyzed. Once the analysis was completed, the software provided the weight distribution of each hind paw as the main readout and the ratio between the injured and intact hind paws was then calculated.

rats [3] = assay: Core body temperature; assay type: in vivo, rat; conditions: 10 mg/kg
Experimental: Core Body Temperature: Following two days of habituation to the measurement method, the body temperature was measured on study day for baseline values and then again post-dosing in the time points indicated in the figure. Body temperature was measured using a probe gently inserted into the animal anus using a corn oil lubricant (C8267, Sigma-Aldrich, IL).

rats [4] = assay: Hot plate (53° C.); assay type: in vivo, rat; conditions: 10 mg/kg PO, 2 and 4 hours post-dose
Experimental: Hot Plate: Animals were placed on hot plate analgesia meter (IITC Life Science Inc., CA, USA) set to 53±1° C., and the time until the first escape response was observed was recorded. A response was considered when the animals lifted or licked their leg or performed kicking behavior.

humans = conditions: Rowbotham 2011; cited from earlier work
In vitro micronucleus = assay type: cell-based; conditions: hamster, cho-k1 cells
Experimental: (§1) The micronucleus assay was performed according to the regulatory guidelines. In brief, CHO-K1 cells were plated at 10000 cells/well in 3 plates and incubated In CHO-K1 growth medium (containing F12K, 10% FBS and 1% PS) overnight.
(§2) As a control for the S9 treatment, plate No. 1, cells were treated with cyclophosphamide as a positive control, for 3 hours. For plate No. 2, without S9 treatment, cells were treated with mitomycin C as a positive control, compounds for 3 hours, and for plate No. 3, without S9 treatment, cells were treated with bleomycin sulfate as a positive control continuously for 24 hours.
(§3) On the following day, 6 μg/mL of cytochalasin B were added to each well and plates were further incubated overnight. In the day after medium was replaced with a combined 10 μg/mL Hoechst dye solution and 0.5 μM calcein-AM in 100 μL warm DPBS for 30 minutes and the plates were scanned using CQ1 high-content analysis system.

CHO-K1 cells = assay: In vitro micronucleus; assay type: cell-based; conditions: hamster
Experimental: as §1, §2, §3

SMILES: CCOC(=O)Nc1ccc(NCc2ccc(F)cc2)cc1N [Retigabine, N-(2-amino-4-(4-fluorobenzylamino)-phenyl)carbamic acid ethyl ester]
- Emax (hKv7.2/3): 220%
- pIC50 (hKv7.3/5): 5.30 to 5.82
- pIC50 (hKv7.4): 5.30 to 5.82
- Channel selectivity [1]: highly selective for KCNQ2-5-type potassium channels
- Other effects [2]: sodium and calcium channel blocking activity

SMILES: NS(=O)(=O)OC[C@H]1C[C@@H](Nc2ccnc3cc(-c4cccc(SC(F)(F)F)c4)nn23)[C@H](O)[C@@H]1O [TAK243]
- pIC50 (HepG2 cells): ~6.70

SMILES: COc1ccc2cc([C@H](C)C(=O)O)ccc2c1 [naproxen, reference compound]
- Reversal of weight bearing changes (MIA-OA rats): comparable reversal of weight bearing changes

SMILES: CC(C)(C)c1ccc2c(c1)CC[C@H]2NC(=O)Nc1cccc2[nH]ncc12 [ABT102, reference compound]
- Increase of core body temperature vs vehicle (rats [3]; 6 hours post-dose): 1.3 °C
- Increase of core body temperature vs vehicle (rats [3]; 10 hours post-dose): 0.8 °C
- Hot plate escape latency (rats [4]): statistically significant increase in hot plate escape latency
- Heat pain threshold, clinical (humans): increase heat pain threshold

SMILES: O=P1(N(CCCl)CCCl)NCCCO1 (stereo not shown) [Cyclophosphamide, reference compound]
- CC50 at 3 h (In vitro micronucleus): 41.4 µM
- Micronucleus response Absolute MEC (CHO-K1 cells): >400 µM
